Blank lines part the entries; values can stand above or below the substance they belong to.
Experiments:
αVβ3 integrin = molecular target: T1, αVβ3 integrin (Homo sapiens, UniProt P05106+P06756); assay: Inhibition of αVβ3-integrin-mediated HUVEC adhesion by anti-αV antibody; type: cell-based; conditions: coating 0.2 μg/well; antibody-treated vs untreated HUVECs
T1 construct: many αVβ3 integrin molecules are permanently expressed on the surfaces of HUVECs; host or cells: HUVEC (normal human umbilical vein endothelial cells)
Method: In order to identify binding between R-Gel and HUVECs as αVβ3-integrin-mediated binding, experimentation was conducted to determine whether or not R-Gel-to-cell adhesion would be inhibited by blocking αVβ3 integrin with an anti-αV antibody in the R-Gel-to-cell adhesiveness tests conducted in (7) above.
Specifically, cell adhesion experiments were conducted as described in (7) above. Experiments were conducted using the R-Gel-coated plate and the fibronectin-coated plate at a coating concentration of 0.2 μg/well. The prepared HUVECs were incubated with anti-human αV monoclonal antibodies (MAB1980: CHEMICON) at a sufficient concentration at 37° C. for 30 minutes, and they are described as “antibody-treated HUVECs”. On the other hand, the prepared HUVECs were incubated with the addition of the same amount of PBS at 37° C. for 30 minutes, and they are described as ““untreated HUVECs”. Cells were inoculated on plates with addition of a solution (100 μL/well) prepared in a manner such that it contained antibody-treated HUVECs or untreated HUVECs at a concentration of 1,000,000 cells/mL. The time for cell adhesion was determined to be 1 hour at 37° C. as in the case of (7) above. Quantitative determination of the number of cells was carried out by DNA assay as in the case of (7) above.

HUVECs = assay: HUVEC cell adhesiveness test on protein-coated plates (DNA assay, 1-cell area); type: cell-based, human
From the text: HUVECs (normal human umbilical vein endothelial cells; Takara Bio Inc.) were used as vascular endothelial cells. It is known that many αVβ3 integrin molecules are permanently expressed on the surfaces of HUVECs. By testing cell adhesiveness of R-Gel to HUVECs, binding of R-Gel to vascular endothelial cells activated by newly formed blood vessels can be elucidated. Also, binding of R-Gel to αVβ3 integrin that has been reported to be highly expressed at newly formed blood vessel sites can be elucidated.
For culture of HUVECs, endothelial cell basic medium-2 (containing no serum) (EBM™-2) and endothelial cell medium kit-2 (2% FBS) (EGM™-2 BulletKit™) were used (Takara Bio Inc.). Upon subculture and removal of cells, an EDTA-containing 0.25% trypsin solution was used. HUVECs that had been allowed to proliferate to a sufficient amount in a T-75 flask were removed from the bottom surface of the flask, followed by centrifugation for removal of the supernatant. Then, the resultant was washed with the above endothelial cell basic medium-2 containing the endothelial cell medium kit 2. Centrifugation was performed again to remove the supernatant. […] The number of living cells was counted using cell counter. […]
DNA assay was performed for quantitative determination of the number of cells on the obtained plates. […]

[1] = tested on: tumor site and tumoral neovascular site; assay: Imaging of tumor site and tumoral neovascular site of cancer-bearing animal (Colon-26 homograft); type: in vivo, BALB/c mouse; conditions: cyclo-RGDfK administered 30 minutes before Cy7-R-Gel
Method: As a tumor-bearing animal model, a cancer-bearing animal was produced. As an animal, BALB/c mouse (female, 6-week-old; Japan SLC, Inc.) was used. Tumor was produced using a cancer cell homograft model. As cancer cells, Colon-26 (which were cells derived from BALB/c mouse colon cancer) was used, and these cells were cultured in large scale in an RPMI1640 medium containing 10% fetal bovine serum. For the culture, a T-225 flask was used. Using EDTA-containing 0.25% trypsin, the growing cancer cells were removed from the bottom of the flask, and a culture supernatant was then removed by centrifugation. Thereafter, the solution was replaced with PBS (phosphate buffer), and the cell concentration was then counted using a cell counter. […]
200 μL of the Cy7-R-Gel or Cy7-animal gelatin produced in (6) above was administered to the cancer-bearing animal produced in (9) above via caudal vein administration, and a fluorescence imaging experiment was then carried out from the outside of the body of the animal.
For detection of a fluorescence signal, measurement, and imaging, Lumino image analyzer LAS5000 (a trial product of Fujifilm Corporation) was used. A visible light image and a fluorescence image were simultaneously taken, and the two images were then overlapped to identify a site from which fluorescence was emitted. […]

neovascular site = assay: Inhibition of accumulation of R-Gel in neovascular site by previous administration of cyclo-RGDfK; type: in vivo, mouse; conditions: for fluorescence intensity in the neovascular site: average±S.D.
Method: In order to evaluate whether accumulation of R-Gel in neovascular site is targeting caused by the same mechanism as that of circular RGD peptide cyclo-RGDfK, whether accumulation of R-Gel would be inhibited by previously administering a large amount of cyclo-RGDfK was examined. Unlabeled cyclo-RGDfK was dissolved in a concentration of 1 mg/ml in ultrapure water, and thereafter, 100 μL of the obtained solution was administered to a mouse via caudal vein administration. Thirty minutes later, 100 μL of Cy7-R-Gel was administered thereto via caudal vein administration. As a control, instead of cyclo-RGDfK, 100 μL of PBS (phosphate buffer) was administered to a mouse via caudal vein administration, and thirty minutes later, 100 μL of Cy7-R-Gel was administered thereto via caudal vein administration. After completion of the administration, fluorescence intensity in the neovascular site was measured over time. When the fluorescence intensity was measured 1 hour after the administration, the fluorescence intensity in the PBS administration group was 98063583±1200251 (average±S.D.), whereas the fluorescence intensity in the cyclo-RGDfK administration group was 81431011±1373625 (average±S.D.). […] Likewise, in the measurement 3 hours after the administration, the fluorescence intensity in the PBS administration group was 88124139±3438695 (average±S.D.), whereas the fluorescence intensity in the cyclo-RGDfK administration group was 60269975±1267782 (average±S.D.). In the measurement 24 hours after the administration, the fluorescence intensity in the PBS administration group was 22196881±2549892 (average±S.D.), whereas the fluorescence intensity in the cyclo-RGDfK administration group was 12763810±1927458 (average±S.D.).

[2] = in vivo, 24 h; cited from earlier work

T1 sequence (P06756 31-889 limits assumed): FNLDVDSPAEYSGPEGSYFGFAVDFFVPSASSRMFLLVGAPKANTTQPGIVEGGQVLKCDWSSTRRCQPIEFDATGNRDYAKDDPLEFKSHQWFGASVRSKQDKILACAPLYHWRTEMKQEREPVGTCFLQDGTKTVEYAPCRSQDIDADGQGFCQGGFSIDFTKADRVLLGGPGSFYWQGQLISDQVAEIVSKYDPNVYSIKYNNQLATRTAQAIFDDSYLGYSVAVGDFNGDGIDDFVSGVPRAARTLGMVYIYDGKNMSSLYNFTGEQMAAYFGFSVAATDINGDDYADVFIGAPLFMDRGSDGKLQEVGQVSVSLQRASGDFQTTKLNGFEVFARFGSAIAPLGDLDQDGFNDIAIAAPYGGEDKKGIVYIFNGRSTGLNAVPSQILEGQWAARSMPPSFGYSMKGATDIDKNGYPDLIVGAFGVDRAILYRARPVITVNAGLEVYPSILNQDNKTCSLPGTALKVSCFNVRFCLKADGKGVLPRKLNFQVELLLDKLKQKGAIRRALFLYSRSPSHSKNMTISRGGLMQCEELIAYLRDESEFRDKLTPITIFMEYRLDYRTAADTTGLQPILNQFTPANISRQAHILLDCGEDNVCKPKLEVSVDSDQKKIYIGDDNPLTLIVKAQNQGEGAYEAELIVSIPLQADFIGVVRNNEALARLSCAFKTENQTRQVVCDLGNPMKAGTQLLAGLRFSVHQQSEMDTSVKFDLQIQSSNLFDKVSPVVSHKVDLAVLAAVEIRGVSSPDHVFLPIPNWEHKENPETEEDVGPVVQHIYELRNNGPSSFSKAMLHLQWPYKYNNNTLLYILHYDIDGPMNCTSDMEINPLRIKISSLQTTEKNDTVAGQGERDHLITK
T1 sequence (P06756 891-1048 partner limits assumed): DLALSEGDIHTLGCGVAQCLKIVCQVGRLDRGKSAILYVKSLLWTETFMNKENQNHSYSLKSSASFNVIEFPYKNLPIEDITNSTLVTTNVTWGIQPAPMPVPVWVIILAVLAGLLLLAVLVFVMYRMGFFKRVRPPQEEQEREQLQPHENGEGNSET
T1 sequence (P05106 27-788): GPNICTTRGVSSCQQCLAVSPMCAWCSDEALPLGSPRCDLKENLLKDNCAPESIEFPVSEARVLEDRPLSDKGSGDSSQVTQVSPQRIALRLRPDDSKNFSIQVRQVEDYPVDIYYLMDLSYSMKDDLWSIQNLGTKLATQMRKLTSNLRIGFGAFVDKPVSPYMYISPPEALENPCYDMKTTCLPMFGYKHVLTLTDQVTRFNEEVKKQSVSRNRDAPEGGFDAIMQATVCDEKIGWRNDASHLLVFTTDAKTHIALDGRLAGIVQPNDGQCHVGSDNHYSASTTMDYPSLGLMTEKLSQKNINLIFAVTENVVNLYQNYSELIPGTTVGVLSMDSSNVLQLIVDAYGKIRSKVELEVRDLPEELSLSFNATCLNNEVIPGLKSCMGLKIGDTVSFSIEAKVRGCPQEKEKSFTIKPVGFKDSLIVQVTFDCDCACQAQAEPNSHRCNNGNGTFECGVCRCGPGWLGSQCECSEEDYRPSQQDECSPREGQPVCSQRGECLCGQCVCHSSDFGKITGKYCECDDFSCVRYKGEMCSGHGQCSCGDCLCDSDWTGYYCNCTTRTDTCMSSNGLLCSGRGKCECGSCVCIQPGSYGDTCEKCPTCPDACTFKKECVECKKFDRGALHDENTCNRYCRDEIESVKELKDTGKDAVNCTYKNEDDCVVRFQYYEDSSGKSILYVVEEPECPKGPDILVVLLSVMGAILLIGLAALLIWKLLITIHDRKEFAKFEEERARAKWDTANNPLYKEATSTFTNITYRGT

adhesion to HUVECs treated with anti-human αV monoclonal antibody (MAB1980) (αVβ3 integrin): significantly inhibited
Substance: R-Gel: recombinant gelatin CBE3, SEQ ID NO: 1, GAP[(GXY)63]3G, 571 amino acids, 12 RGD sequences
adhesion to HUVECs (number of cells by DNA assay) (HUVECs; coated plates 0.02-2.0 μg/well, 1 hour at 37° C.): superior to fibronectin, Fibrogen, PSK, and G1917P
1-cell area of HUVEC adhering to coated plate (HUVECs; from photos, ImageJ): significantly superior to Fibrogen, PSK, and G1917P

adhesion to HUVECs treated with anti-human αV monoclonal antibody (MAB1980) (αVβ3 integrin): significantly inhibited
Substance: fibronectin

Substance: cyclo-RGDfK
accumulation of R-Gel in the tumoral neovascular site and the tumor site after previous cyclo-RGDfK [1]: decreased
fluorescence intensity in the neovascular site (neovascular site; Cy7-R-Gel 30 min after cyclo-RGDfK (1 mg/ml, 100 μL) pre-administration, 1 hour after the administration): 81431011±1373625
fluorescence intensity in the neovascular site (neovascular site; Cy7-R-Gel 30 min after cyclo-RGDfK pre-administration, 3 hours after the administration): 60269975±1267782
fluorescence intensity in the neovascular site (neovascular site; Cy7-R-Gel 30 min after cyclo-RGDfK pre-administration, 24 hours after the administration): 12763810±1927458
effect of previous administration of cyclo-RGDfK on accumulation of R-Gel in blood vessels (neovascular site; large amount of cyclo-RGDfK administered 30 min before Cy7-R-Gel): inhibits the effect of R-Gel to accumulate in blood vessels

Substance: cyclic-RGDyK
amount of the circular RGD peptide remaining in the body [2]: ≤ 15%

Reference: patent US8877158B2, “Targeting agent to newly formed blood vessels” (FUJIFILM Corporation, priority 2009, dated 2014)
